Source: publication PMC6154694, “Absorption, Metabolic Stability, and Pharmacokinetics of Ginger Phytochemicals” (Molecules : A Journal of Synthetic Chemistry and Natural …, 2017)

Legend:
[1] = pH dependent kinetic solubility in hydrochloride, citrate and phosphate buffers; assay type: physicochemical; conditions: 23 °C, kinetic from dmso stock, tested 10 to 100 µM, n = 2
Procedure: Calibration standards were prepared by spiking 5 μL of DMSO stock solutions into 995 μL acetonitrile/buffer (1:1) mixture. Following centrifugation (10,000 rpm, 10 min, 25 °C) the reaction samples were diluted 1:1 with acetonitrile.

[2] = Liver microsomal stability, mouse; assay type: in vitro ADME, CD1 mouse; conditions: protein 0.5 mg/mL
In short: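 Pooled CD1 mouse, Sprague-Dawley rat, Beagle dog and mixed-gender human microsomes (0.5 mg/mL) with 1 mM NADPH in 100 mM sodium phosphate pH 7.4, preincubated 10 min at 37 °C. […]; sampled 0–30 min, acetonitrile-quenched; NADPH-free controls run in parallel.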

[3] = Mouse pharmacokinetic study of oral GE with and without ketoconazole, plasma with and without β-glucuronidase treatment; assay type: in vivo, male mice (C57BL6J); conditions: for Concentration Ratio (Total/Free) of GE Phenolics: GE administered group; for Concentration Ratio (Total/Free) of GE Phenolics / concentration at 0 h / concentration at 0.087 h / concentration at 0.167 h / concentration at 0.25 h / concentration at 0.5 h / concentration at 1 h / concentration at 2 h / concentration at 3 h / concentration at 4 h / concentration at 6 h / concentration at 8 h / concentration at 12 h: mouse plasma; for AUC(0-t) / Cmax / Tmax / concentration at 0 h / concentration at 0.087 h / concentration at 0.167 h / concentration at 0.25 h / concentration at 0.5 h / concentration at 1 h / concentration at 2 h / concentration at 3 h / concentration at 4 h / concentration at 6 h / concentration at 8 h / concentration at 12 h: male, C57BL6J; for AUC(0-t) / Cmax / Tmax: mouse, plasma, po, 250 mg/kg
In short: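 Male C57BL6J mice got GE 250 mg/kg orally in ethanol/Tween 80/PEG/corn oil, alone or with ketoconazole 50 mg/kg (n=36/group), with terminal plasma sampling from 0 to 12 h. Plasma was assayed by LC-MS/MS with or without β-glucuronidase (37 °C, 1 h) to give total and free phenolics. Non-compartmental PK used linear-trapezoidal AUClast and observed Cmax/Tmax.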

[4] = 250 mg/kg GE + 50 mg/kg KTZ oral, +KTZ −βgd

For `CCCCC[C@H](O)CC(=O)CCc1ccc(O)c(OC)c1` [6G, 6-gingerol], the solubility at 2 h ([1]; 100 mM citrate buffer, aqueous buffer, pH 4, citrate buffer) was over 100 µM, the solubility at 2 h ([1]; 100 mM phosphate buffer, aqueous buffer, pH 7.4, phosphate buffer) was over 100 µM and the solubility at 2 h ([1]; simulated gastric fluid, pH 2, hydrochloride buffer) was over 100 µM. For the same compound, the remaining at 0.5 h, 10 µM ([2]; CD1, pooled liver microsomes, pH 7.4, substrate 10 µM, n = 2, read-out: % Remaining at 30 min) was 30%, the “Intrinsic Clearance” value ([2]; mouse liver microsomes, substrate 10 µM, 45 mg protein/g liver) was 10.5 mL/min/g Liver and the “AUClast Ratio” value ([3]; +KTZ +βgd, reference GE group co-administered with KTZ untreated with βgd) was 63. For the same compound, the “AUClast Ratio” value ([3]; +KTZ +βgd, reference GE group untreated with βgd) was 498, the “AUClast Ratio” value ([3]; +KTZ −βgd, reference GE group untreated with βgd) was 8 and the “Concentration Ratio (Total/Free) of GE Phenolics” value (“Concentration Ratio (Total/Free)” below) ([3]; 0 h) was 0. For the same compound, the “Concentration Ratio (Total/Free)” value ([3]; 0.087 h) was 0, the “Concentration Ratio (Total/Free)” value ([3]; 0.167 h) was 0 and the “Concentration Ratio (Total/Free)” value ([3]; 0.25 h) was 3659. The “Concentration Ratio (Total/Free)” value ([3]; 0.5 h) was 8723, the “Concentration Ratio (Total/Free)” value ([3]; 1 h) was 0 and the “Concentration Ratio (Total/Free)” value ([3]; 2 h) was 53. The “Concentration Ratio (Total/Free)” value ([3]; 3 h) was 290, the “Concentration Ratio (Total/Free)” value ([3]; 4 h) was 491 and the “Concentration Ratio (Total/Free)” value ([3]; 6 h) was 391. For the same compound, the “Concentration Ratio (Total/Free)” value ([3]; 8 h) was 0, the “Concentration Ratio (Total/Free)” value ([3]; 12 h) was 0 and the AUC(0-t) ([3]; 250 mg/kg GE oral, −βgd) was 37.7 ng·h/mL. It also gave a Cmax ([3]; 250 mg/kg GE oral, −βgd) of 27.2 ng/mL, a Tmax ([3]; 250 mg/kg GE oral, −βgd) of 2 h and an AUC(0-t) [3, 4] of 300 ng·h/mL. The Cmax [3, 4] was 257 ng/mL, the Tmax [3, 4] was 0.5 h and the concentration at 0 h ([3]; 250 mg/kg GE oral, 0 h, −βgd) was 0 ng/mL. The concentration at 0.087 h ([3]; 250 mg/kg GE oral, 0.087 h, −βgd) was 0 ng/mL, the concentration at 0.167 h ([3]; 250 mg/kg GE oral, 0.167 h, −βgd) was 0.11 ± 0.08 ng/mL and the concentration at 0.25 h ([3]; 250 mg/kg GE oral, 0.25 h, −βgd) was 2.25 ± 1.73 ng/mL. For the same compound, the concentration at 0.5 h ([3]; 250 mg/kg GE oral, 0.5 h, −βgd) was 1.79 ± 1.82 ng/mL, the concentration at 1 h ([3]; 250 mg/kg GE oral, 1 h, −βgd) was 1.04 ± 0.79 ng/mL and the concentration at 2 h ([3]; 250 mg/kg GE oral, 2 h, −βgd) was 27.2 ± 38.4 ng/mL. It also gave a concentration at 3 h ([3]; 250 mg/kg GE oral, 3 h, −βgd) of 2.45 ± 1.73 ng/mL, a concentration at 4 h ([3]; 250 mg/kg GE oral, 4 h, −βgd) of 0.82 ± 1.16 ng/mL and a concentration at 6 h ([3]; 250 mg/kg GE oral, 6 h, −βgd) of 3.22 ± 4.03 ng/mL. It also gave a concentration at 8 h ([3]; 250 mg/kg GE oral, 8 h, −βgd) of 0.77 ± 0.57 ng/mL, a concentration at 12 h ([3]; 250 mg/kg GE oral, 12 h, −βgd) of 0.33 ± 0.44 ng/mL and a concentration at 0 h ([3]; 250 mg/kg GE with 50 mg/kg ketoconazole oral, 0 h, −βgd) of 0 ng/mL. For the same compound, the concentration at 0.087 h ([3]; 250 mg/kg GE with 50 mg/kg ketoconazole oral, 0.087 h, −βgd) was 0.31 ± 0.44 ng/mL, the concentration at 0.167 h ([3]; 250 mg/kg GE with 50 mg/kg ketoconazole oral, 0.167 h, −βgd) was 5.71 ± 4.25 ng/mL and the concentration at 0.25 h ([3]; 250 mg/kg GE with 50 mg/kg ketoconazole oral, 0.25 h, −βgd) was 35.9 ± 44.5 ng/mL. It also gave a concentration at 0.5 h ([3]; 250 mg/kg GE with 50 mg/kg ketoconazole oral, 0.5 h, −βgd) of 37900 ng/mL, a concentration at 1 h ([3]; 250 mg/kg GE with 50 mg/kg ketoconazole oral, 1 h, −βgd) of 104 ± 110 ng/mL and a concentration at 2 h ([3]; 250 mg/kg GE with 50 mg/kg ketoconazole oral, 2 h, −βgd) of 70900 ng/mL. The concentration at 3 h ([3]; 250 mg/kg GE with 50 mg/kg ketoconazole oral, 3 h, −βgd) was 65.2 ± 54.3 ng/mL, the concentration at 4 h ([3]; 250 mg/kg GE with 50 mg/kg ketoconazole oral, 4 h, −βgd) was 5.87 ± 1.18 ng/mL and the concentration at 6 h ([3]; 250 mg/kg GE with 50 mg/kg ketoconazole oral, 6 h, −βgd) was 1.09 ± 0.93 ng/mL. The concentration at 8 h ([3]; 250 mg/kg GE with 50 mg/kg ketoconazole oral, 8 h, −βgd) was 10.4 ± 11.1 ng/mL and the concentration at 12 h ([3]; 250 mg/kg GE with 50 mg/kg ketoconazole oral, 12 h, −βgd) was 0.74 ± 1.05 ng/mL.
